The results in this text go back to PubChem BioAssay (NCI).

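Five compound concentrations were applied to cells in 96-well plates for 48 hours; endpoints were derived by simple linear interpolation of the resulting dose-response curve. At the TGI there is no net growth.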

Test systems include A498 renal; A549 NSCLC; ACHN renal; COLO 205 colon; DU-145 prostate; EKVX NSCLC; HCC-2998 colon; HCT-15 colon; KM12 colon; M14 melanoma; MDA-MB-231 breast; SF-268 CNS; SF-295 CNS; SK-MEL-2 melanoma; SK-MEL-28 melanoma; UACC-257 melanoma; UACC-62 melanoma.
Holding throughout (assay): NCI-60 cell line screen, 48 h

Consider `C=C1CC(CN2CCC(=O)NC2=O)(c2ccccc2)OC1=O` (stereo not given), for which the TGI stood at 37.6 µM in the assay with A498 renal; 33 µM in the assay with A549 NSCLC; 23.8 µM in the assay on ACHN renal; 6.25 µM in the assay with COLO 205 colon; 30.1 µM in the assay on DU-145 prostate; 40 µM in the assay on EKVX NSCLC. In addition, the TGI came out at 29.7 µM in the assay with HCC-2998 colon; 18.5 µM with HCT-15 colon; 46.8 µM in the assay with KM12 colon; 12.8 µM in the assay with M14 melanoma; 32.1 µM in the assay with MDA-MB-231 breast; 50.4 µM in the assay with SF-268 CNS. Moreover, the TGI with SF-295 CNS is 43 µM; in the assay with SK-MEL-2 melanoma, 27.9 µM; with SK-MEL-28 melanoma it was 27.3 µM; with UACC-257 melanoma, 30.8 µM; in the assay with UACC-62 melanoma it was 21.3 µM.

Turning to `c1ccc(C2=Nc3cccc4cccc(c34)N2)cc1`, the TGI with A498 renal was greater than 100 µM; with A549 NSCLC, greater than 100 µM; in the assay with ACHN renal it was 62.5 µM; in the assay with COLO 205 colon, 40.9 µM; in the assay on DU-145 prostate it was greater than 100 µM; in the assay on EKVX NSCLC, greater than 100 µM. Moreover, the TGI in the assay with HCC-2998 colon was greater than 100 µM; in the assay with HCT-15 colon, greater than 96.1 µM; in the assay on KM12 colon, greater than 85.1 µM; in the assay on M14 melanoma, greater than 100 µM; in the assay on MDA-MB-231 breast, 54.7 µM; with SF-268 CNS it was greater than 90.6 µM. In addition, the TGI with SF-295 CNS is greater than 100 µM; in the assay with SK-MEL-2 melanoma, greater than 93.1 µM; with SK-MEL-28 melanoma, greater than 100 µM; in the assay with UACC-257 melanoma, greater than 100 µM; in the assay with UACC-62 melanoma it was greater than 100 µM.

Regarding `N#Cc1c(N)c(C#N)c2c(c1-c1ccc(Cl)cc1)COc1ccccc1-2`, the TGI in the assay with A498 renal was 37.7 µM; in the assay with A549 NSCLC, 33.2 µM; with ACHN renal, 38.1 µM; with COLO 205 colon, greater than 100 µM; with DU-145 prostate, 68.6 µM; with EKVX NSCLC it was 28.5 µM. Besides, the TGI in the assay with HCC-2998 colon is 54.9 µM; in the assay with HCT-15 colon it was greater than 100 µM; in the assay with KM12 colon, greater than 100 µM; with M14 melanoma, greater than 100 µM; with MDA-MB-231 breast, 92.3 µM; in the assay with SF-268 CNS, greater than 100 µM. Moreover, the TGI in the assay with SK-MEL-2 melanoma is 60.1 µM; in the assay on SK-MEL-28 melanoma, 37.4 µM; in the assay with UACC-257 melanoma, greater than 100 µM; in the assay on UACC-62 melanoma, greater than 100 µM.

With `NC(=S)NS(=O)(=O)c1ccc(F)cc1F`, the TGI in the assay on A498 renal, with A549 NSCLC, in the assay on ACHN renal, with COLO 205 colon, in the assay with DU-145 prostate and with EKVX NSCLC was greater than 100 µM in each case. Besides, the TGI with HCC-2998 colon, in the assay on HCT-15 colon, in the assay on KM12 colon, in the assay with M14 melanoma, in the assay with MDA-MB-231 breast and in the assay on SF-268 CNS was greater than 100 µM throughout. The TGI with SF-295 CNS, with SK-MEL-2 melanoma, in the assay with SK-MEL-28 melanoma, in the assay with UACC-257 melanoma and with UACC-62 melanoma was greater than 100 µM throughout.

For the compound `CC(NC(NC(C)C12CC3CC(CC(C3)C1)C2)=C(C(Cl)=C(Cl)Cl)[N+](=O)[O-])C12CC3CC(CC(C3)C1)C2` (stereo not given), the TGI in the assay with A498 renal is greater than 100 µM; in the assay with A549 NSCLC it was 25.7 µM; in the assay on ACHN renal, greater than 100 µM; with COLO 205 colon, 22.6 µM; in the assay on DU-145 prostate, greater than 100 µM; in the assay on EKVX NSCLC it was greater than 89.4 µM. Moreover, the TGI in the assay with HCC-2998 colon was greater than 75 µM; with HCT-15 colon, greater than 100 µM; with KM12 colon, greater than 100 µM; with M14 melanoma, 48.7 µM; in the assay with MDA-MB-231 breast, 16 µM; in the assay on SF-268 CNS, greater than 59.5 µM. Besides, the TGI in the assay on SF-295 CNS is greater than 100 µM; in the assay with SK-MEL-2 melanoma, greater than 67.6 µM; in the assay on SK-MEL-28 melanoma it was greater than 75.5 µM; in the assay on UACC-257 melanoma, greater than 54.6 µM; with UACC-62 melanoma it was greater than 100 µM.

Take `CC(=O)N=C1N(/C=C2\C(=O)Oc3ccccc3C2=O)C(=O)/C(=C/c2ccccc2Cl)N1C`: the TGI was 96.7 µM in the assay on A498 renal; greater than 100 µM with A549 NSCLC; greater than 100 µM in the assay on ACHN renal; greater than 100 µM in the assay with COLO 205 colon; greater than 100 µM in the assay on DU-145 prostate; greater than 100 µM with EKVX NSCLC. For the same compound, the TGI in the assay on HCC-2998 colon, in the assay on HCT-15 colon, in the assay with KM12 colon, with M14 melanoma, in the assay on MDA-MB-231 breast and in the assay with SF-268 CNS was greater than 100 µM each time. Besides, the TGI in the assay with SF-295 CNS, in the assay with SK-MEL-2 melanoma, in the assay on SK-MEL-28 melanoma, in the assay on UACC-257 melanoma and with UACC-62 melanoma was greater than 100 µM each time.

For `CC[C@@H](/C=C\CCC1(C[C@@H](N)CCC=C(C)C)OCCO1)O[Si](C(C)C)(C(C)C)C(C)C`, the TGI in the assay with A498 renal amounted to 32.4 µM; in the assay with A549 NSCLC, 33.1 µM; in the assay with ACHN renal, 32 µM; in the assay with COLO 205 colon, 27.3 µM; in the assay with DU-145 prostate, 40.3 µM; with EKVX NSCLC it was 29.3 µM. Besides, the TGI in the assay on HCC-2998 colon was 26 µM; in the assay on HCT-15 colon it was 35.4 µM; with KM12 colon it was 35.3 µM; with M14 melanoma, 33.6 µM; with MDA-MB-231 breast, 33.6 µM; in the assay with SF-268 CNS, 39.9 µM. Also, the TGI in the assay with SF-295 CNS amounted to 37.4 µM; with SK-MEL-2 melanoma it was 31.7 µM; in the assay with SK-MEL-28 melanoma, 38.4 µM; in the assay with UACC-257 melanoma, 36.6 µM; in the assay on UACC-62 melanoma, 31.9 µM.

For `COc1ccc(N2C(=O)/C(=C\c3cccc(Oc4ccccc4)c3)SC2c2ccccc2)cc1` (stereo not given), the TGI with A498 renal, in the assay with A549 NSCLC, in the assay on ACHN renal, with COLO 205 colon, with DU-145 prostate and in the assay with EKVX NSCLC was greater than 100 µM in each case. The TGI in the assay with HCC-2998 colon, in the assay on HCT-15 colon, with KM12 colon, in the assay on M14 melanoma, with MDA-MB-231 breast and with SF-268 CNS was greater than 100 µM throughout. For the same compound, the TGI in the assay on SF-295 CNS, in the assay with SK-MEL-2 melanoma, with SK-MEL-28 melanoma, in the assay with UACC-257 melanoma and with UACC-62 melanoma was greater than 100 µM in each case.
